Source: patent publication US7033597B2, “Intracellular delivery of biological effectors” (Université de Lausanne, priority 2000, dated 2006)
Where no end group is shown, it is not given here.

How the values were obtained:
Format in all cases: cell-based
βTC-3 cells [1] = test: Immunocytochemistry and fluorescence studies of oximes; details: fluorescence studies
Description: Single phages isolated according to the enrichment scheme above were amplified. The phage peptides and one of oximes 1–6 were added and incubated for 24 hours with cells in culture medium. Medium was then washed off and cells fixed in cold methanol-acetone (1:1) for 5 minutes. Antibodies directed against the phage capsid or against biotin (peptides) were used with a fluorescein-conjugated (phage) or Texas Red labeled (peptides) secondary antibody. Classical fluorescence microscopic studies and confocal microscopic assays were performed.
Oximes 1–3 were first tested for their entry into βTC-3 cells. […] The superiority of oxime 3 may be due to the flexibility of the PEG spacer, which increases binding to the receptors on the cells.
Oximes 4–6, which are similar to oxime 3, were then synthesized and assayed for binding avidity and entry efficiency.

βTC-3 cell line = test: Panning of phage display library on βTC-3 cells, occurrence of recovered phages
Description: (§1) A library of 3×10^8 independent phages displaying random 15-mer epitopes at the surface of the capsids was generated using standard procedures (e.g., in T7 415 or the T7 413b phage, Novagen). See Smith and Scott, Methods Enzymol. 217:228 (1993). Phages were amplified then purified by polyethylene glycol (PEG) precipitation and finally resuspended at a concentration of 10^10 infective particles per μl in Tris-EDTA buffer (10:1 mM, TE) as described (by Smith and Scott, supra). Phages (10^12) were added to cells in culture medium for 1 to 24 hours. Longer incubation times were preferred to favor isolation of phages that escaped proteolytic degradation in endocytotic vesicles. Following binding and internalization, cells were washed and non-internalized phages were destroyed by digestion with subtilisin (3 mg/ml) (44). Following extensive washing, internalized phages were then recovered by lysing cells in a buffer containing 2% deoxycholate, 10 mM Tris-HC1 and 2mM EDTA, pH 8.0. Recovered phages were finally amplified in E. coli cells (XL-1-Blue) and purified as described above. This preparation of selected phages was then used for a second round of panning. Three to five sequential rounds were performed to obtain enrichment of specific phage-bearing peptide sequences.
The pancreatic β-cell line βTC-3 was panned with the phage display library mentioned herein. […] Panning experiments using βTC-3 cells were performed with 10^9 phages used at each step of the enrichment procedure. The number of phages recovered at 0 ° C.
The occurrence of phages recovered after three steps of panning in the βTC-3 cell line is seen in Table 2.

βTC-3 cells [2] = test: Titration of phage P1 incubated with βTC-3 cells
Description: as §1
The ratio of input/recovered phages is also shown.

A549 = test: Specificity of phage uptake, internalized and recovered phages; details: 10^8 phages incubated 16 hours
Description: as §1
(§2) Determination of the specificity of uptake was performed by titrating the number of recovered phages in 5 different cell lines.

HeLa = test: as above; details: 10^8 phages incubated 16 hours
Description: as §1, §2

HepG2 = test: as above; details: 10^8 phages incubated 16 hours
Description: as §1, §2

WiDr = test: as above; details: 10^8 phages incubated 16 hours
Description: as §1, §2

βTC-3 = test: as above
Description: as §1, §2

5 different cell lines = test: Specificity of phage uptake across the cell lines; details: βTC-3 vs HeLa, WiDr, HepG2, A549
Description: as §1, with “sequences. […]” for “sequences.”

Oxime 3: tetraoxime with four copies of RRTK, two-unit PEG spacer between peptide and core 1, FITC reporter (RRTK-OH; not fully specified (N-terminus, bridges); also: tetraoxime: four RRTK copies joined by thioether to Cys of branched trilysine core 1, core carries aminooxyacetyl-Lys(FITC) via oxime bond)
binding to receptors on the cell surface (βTC-3 cells [1]): clearly bound to the receptors on the surface of βTC-3 cells

RKLR [Oxime P6]
occurrence of phages recovered after three steps of panning (βTC-3 cell line): 17%

RRPK [Oxime P66]
occurrence of phages recovered after three steps of panning (βTC-3 cell line): 5.5%

RRTK [Oxime P1]
occurrence of phages recovered after three steps of panning (βTC-3 cell line): 61% | % Recovered (βTC-3 cells [2]; incubation 1 h): 0.01% | initial phage input recovered (βTC-3 cells [2]; titration experiments): ≤ 10% | Phages recovered (A549): 10^3 | Phages recovered (HeLa): <1 × 10^2 | Phages recovered (HepG2): <10 | Phages recovered (WiDr): 2 × 10^2 | efficiency of internalization (βTC-3; phage experiments, βTC-3 cells): low | uptake by cells (βTC-3; phage experiments, βTC-3 cells): taken up specifically by βTC-3 cells via receptor-mediated endocytosis | Phages recovered (βTC-3; βTC-3, 10^8 phages incubated 16 hours): 1 × 10^7 | uptake by βTC-3 cells relative to any other cell line tested (5 different cell lines): 10,000 to 1,000,000 fold
